Source: patent publication US20240299591A1, “Antimicrobial Peptides and Their Use” (priority 2021, published 2024)
Converted amounts (≈) assume the structure as drawn. “Also recorded” adds a separate entry of the source. Where a SMILES comes first, the peptide text is derived from it.

Assays:
A. fumigatus = test: Live cell imaging of A. fumigatus in co-cultures with A549; assay type: cell-based, Aspergillus fumigatus; settings: 2.5 µM, 10 min after addition, 37° C. in RPMI
S. aureus = assay type: cell-based, Staphylococcus aureus
Method: Bacteria strains used were grown on Lysogeny Broth (LB) agar at 37° C. for 1 day, and were harvest using sterile inoculation loop by taking a single colony and resuspending in PBST. The concentration of cells was quantified using a haemocytometer. For the determination of the minimum inhibitory concentration, cell density was adjusted to 10^8 cells/mL with 20% liquid LB medium.

Fusarium oxysporum = assay type: cell-based; settings: 24 h
Method: Dose dependent inhibition of fungal growth by all non-labelled peptides (indicated by IC50 values) was determined via this methodology. The assays were performed using Nunc 262162 U96 polystyrene round bottomed clear plates (www.nuncbrand.com).
(§1) When testing the peptides against A. fumigatus, peptides at different concentrations were mixed with A. fumigatus conidia to reach a final volume of 100 μL per well. The final conidial concentration was 5×10^5 cells/mL in 10% Vogel's medium. After 24 h of incubation at 37° C. in 96 well plates, fungal growth with the different peptide concentrations was determined by measurement of the optical density at 610 nm in a TriStar LB 941 Multimode Microplate Reader. The IC50 values were determined using four parameter logistic regression formula provided by Sigma Plot 10.0. Values are represented as means±SEM from two independent experiments (n=3).
When testing the peptides against N. crassa and F. oxysporum, experiments were carried as described above apart from the incubation temperature was changed to 25° C. for N. crassa and 35° C. for F. oxysporum.
(§2) The IC50 of the fluorescently labelled peptides cannot be accurately determined using the optical density method described in the last section. This is because the fluorophore structures absorbed light at 610 nm which was the wavelength used for the optical density measurements. In order to overcome this, the BacTiter-Glo™ Microbial Cell Viability Assay kit purchased from Promega was used. The BacTiter-Glo™ Reagent relies on the properties of a proprietary thermostable luciferase (Ultra-Glo™ Recombinant Luciferase) and a proprietary formulation for extracting ATP from fungal cells which will generates a ‘glow-type’ luminescent signal. This is produced by the luciferase reaction shown in Scheme 1, which has a signal half-life of over 30 min depending on the experimental conditions. The luminescent signal is proportional to the amount of ATP present, which is directly proportional to the number of living cells in culture.
(§3) The IC50 assays for all fluorescently labelled peptides were performed using Greiner CELLSTAR white polystyrene wells flat bottomed 96 well plates. The incubation conditions remained the same for the optical density measurement described in the previous section. Once the incubation procedure was finished, the plate was equilibrated to room temperature. A mixture of BacTiter-Glo™ buffer and substrate was then added to the plate (100 μL per well). The plate was shaken for 5 min and read using the Tristar […] luminometer. Data analysis was performed using Sigma Plot 10.0. All values shown are presented as means±SEM from two independent experiments (n=3).

YFP-A. fumigatus = test: Ex vivo porcine cornea infected with YFP-A. fumigatus, topical treatment, confocal live-cell imaging; set-up: species or system Aspergillus fumigatus
Method: FIG. 6 contains images of ex vivo corneas infected with YFP-A. fumigatus treated with either PBS or MFIGAF001. All cornea were treated with one drop of reagent every 2 hours for the first 8 hours, then one drop every 8 hours for the remaining 16 hours. Treatment was continued for 72 hours with this treatment regimen. MFIGAF001 was used at 100 mg/L.
FIG. 7 contains images of an ex vivo cornea infected with A. fumigatus treated with MFIGAF001, using the fluorescent confocal live-cell imaging approach with a yellow fluorescent protein (YFP). The yellow fluorescent signal (yellow in the original graphs, white reproduced here) indicates the live fungal burden that penetrated into the corneal tissue. All cornea were treated with one drop of reagent every 2 hours for the first 8 hours, then one drop every 8 hours for the remaining 16 hours. Treatment was continued for 72 hours with this treatment regimen. MFIGAF001 was used at 100 mg/L.
FIG. 8 contains images of an ex vivo cornea infected with A. fumigatus treated with either Natamycin or MFIGAF001, using the fluorescent confocal live-cell imaging approach with a YFP. All cornea were treated with one drop of reagent every 2 hours for the first 8 hours, then one drop every 8 hours for the remaining 16 hours. […]
YFP-A. fumigatus spores were harvested from 3 days old cultures grown on SAB agar at 37° C. in PBST and quantified using a haemocytometer. […]

Aspergillus fumigatus = assay type: cell-based
Method: The assays were performed using Nunc 262162 U96 polystyrene round bottomed clear plates (www.nuncbrand.com).
as §1, §2, §3

## N=C(N)NCCC[C@@H]1NC(=O)CNC(=O)[C@H](Cc2c[nH]c3ccccc23)NC(=O)[C@H](Cc2ccccc2)NC(=O)[C@H](Cc2c[nH]c3ccccc23)NC(=O)[C@@H](Cc2ccccc2)NC(=O)[C@H](CCCCN)NC(=O)[C@H](CCCCN)NC1=O [MFIGAF001, Cyclo(Arg-Lys-Lys-phe-Trp-Phe-Trp-Gly)] (HELM PEPTIDE1{F.W.G.R.K.K.[dF].W}$PEPTIDE1,PEPTIDE1,1:R1-8:R2$$$V2.0)
A. fumigatus
  Selective labelling of A. fumigatus over A549: selectively labels A. fumigatus
S. aureus
  Antibacterial activity against Staphylococcus aureus: Antibacterial activity
  MIC: 15.6 µM (≈ 17.7 µg/mL)
Fusarium oxysporum
  IC50 Fusarium oxysporum: 1.9 µg/mL (≈ 1.67 µM)
YFP-A. fumigatus; 100 mg/L topical drops, 72 h of treatment, vs saline
  Live fungal burden in ex vivo cornea: reduced fungal burden; also recorded: elimination of live fungal burden
YFP-A. fumigatus; MFIGAF001 100 mg/L, Natamycin 120 mg/L, 72 hours
  Efficacy ex vivo compared with Natamycin: comparable efficacy
Aspergillus fumigatus; 24 h
  IC50 Aspergillus fumigatus: 1.4 µg/mL (≈ 1.23 µM)
Aspergillus fumigatus; Conidia (10% Vogel's), 37° C., 24 h
  IC99 Aspergillus fumigatus: 5.7 mg/L
Aspergillus fumigatus; various fungi, including Aspergillus fumigatus and Fusarium oxysporum
  IC50 value against major pathogenic fungi (in words): sub-micromolar
